Laboratory results taken from the supplement of paper PMC10307832.

Assays:
Assay in all cases: relative viability (nuclei count vs DMSO), 5 days (fraction); higher = more cells survive
[1] = compound: CC1=C(C=C(C=C1)NC(=O)C2=CC(=CC=C2)C(C)(C)C#N)NC3=CC4=C(C=C3)N=CN(C4=O)C [AZ628] + CS(=O)(=O)N1CCN(Cc2cc3nc(-c4cccc5[nH]ncc45)nc(N4CCOCC4)c3s2)CC1 [Pictilisib] (partner 1 µM)
How it was run: (§1)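 The day after seeding in 1536-well plates, lung cancer cell lines were treated by pin tool with a single drug, or with a fixed anchor-drug dose together with five library-drug doses (not always all listed) in √10 steps. After 5 days, a combined fix-and-stain solution (final 0.05% Triton X-100, 1% formaldehyde, 1 ug/ml Hoechst) was added. Nuclei counted on 4× images gave relative viability as treated counts over vehicle counts, reported as the median of duplicate plates.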

[2] = compound: C[As](C)SC[C@H](NC(=O)CC[C@H](N)C(=O)O)C(=O)NCC(=O)O [Darinaparsin] + CCNC(=O)c1noc(-c2cc(C(C)C)c(O)cc2O)c1-c1ccc(CN2CCOCC2)cc1 [Luminespib] (partner 0.01 µM)
How it was run: as §1

[3] = compound: C1CC2=C(C1)C=C(C=C2)OC3=NC(=C4C(=N3)N(C=N4)CC5=CC=C(C=C5)C6=CC=CC=C6)N[C@@H](CC7=CC=CC=C7)CO [QS11] + Cc1nc(Nc2ncc(C(=O)Nc3c(C)cccc3Cl)s2)cc(N2CCN(CCO)CC2)n1 [Dasatinib] (partner 0.075 µM)
How it was run: as §1

[4] = compound: C[As](C)SC[C@H](NC(=O)CC[C@H](N)C(=O)O)C(=O)NCC(=O)O [Darinaparsin] + CS(=O)(=O)CCNCc1ccc(-c2ccc3ncnc(Nc4ccc(OCc5cccc(F)c5)c(Cl)c4)c3c2)o1 [Lapatinib] (partner 2 µM)
How it was run: as §1

Cell Line	relative viability ([1]; first compound 0.08 µM)	relative viability ([1]; first compound 0.253 µM)	relative viability ([1]; first compound 0.8 µM)	relative viability ([1]; first compound 2.53 µM)	relative viability ([1]; first compound 8 µM)	relative viability ([2]; first compound 0.08 µM)	relative viability ([2]; first compound 0.8 µM)	relative viability ([2]; first compound 2.53 µM)	relative viability ([2]; first compound 8 µM)	relative viability ([3]; first compound 0.08 µM)	relative viability ([3]; first compound 0.253 µM)	relative viability ([3]; first compound 0.8 µM)	relative viability ([3]; first compound 2.53 µM)	relative viability ([3]; first compound 8 µM)	relative viability ([4]; first compound 0.08 µM)	relative viability ([4]; first compound 0.8 µM)	relative viability ([4]; first compound 2.53 µM)	relative viability ([4]; first compound 8 µM)
NCI-H647	0.385	0.163	0.313	0.247	0.27	0.176	0.154	0.0855	0.215	0.164	0.219	0.216	0.184	0.205	1.28	0.926	0.833	1.42
NCI-H650	1.07	1	1.06	1.12	0.732	0.81	0.793	0.872	0.831	0.424	0.428	0.497	0.4	0.352	0.87	0.703	0.897	0.886
NCI-H661	0.401	0.312	0.302	0.353	0.331	0.934	0.874	1.08	1.04	0.794	0.804	0.891	0.798	0.711	0.509	0.584	0.513	0.511
NCI-H727	0.314	0.199	0.184	0.281	0.28	0.175	0.314	0.285	0.343	0.297	0.467	0.353	0.554	0.438	0.872	0.545	0.79	0.967
NCI-H838	0.523	0.559	0.356	0.403	0.365	0.29	0.265	0.284	0.283	0.271	0.312	0.357	0.27	0.276	1.23	0.835	0.831	1.32
NCI-H1355	0.454	0.395	0.404	0.34	0.285	0.702	0.725	0.559	0.568	0.702	0.526	0.673	0.817	0.794	1.11	0.845	0.893	1.17
NCI-H1395	0.645	0.621	0.618	0.629	0.662	0.681	0.708	0.553	0.593	0.387	0.361	0.382	0.408	0.419	1.3	0.949	1.03	1.37
NCI-H1437	0.505	0.476	0.526	0.532	0.483	1.32	1.21	1.08	1.36	0.397	0.347	0.404	0.531	0.391	1.15	0.769	0.719	0.974
NCI-H1563	0.613	0.667	0.657	0.658	0.616	0.588	0.429	0.495	0.473	0.448	0.417	0.44	0.409	0.426	1.01	1.02	0.914	1.14
NCI-H1650	0.741	0.604	0.614	0.5	0.342	0.238	0.214	0.187	0.173	0.288	0.27	0.329	0.308	0.284	1	0.764	0.779	0.938
NCI-H1651	0.698	0.685	0.587	0.537	0.599	0.886	0.831	0.926	1.16	0.486	0.306	0.333	0.495	0.291	1.01	0.881	0.759	1.09
NCI-H1666	0.404	0.296	0.339	0.362	0.313	1.05	0.897	1.24	1.07	0.783	0.839	0.568	0.583	0.528	0.763	0.587	0.59	0.701
NCI-H1734	0.432	0.359	0.351	0.367	0.306	0.201	0.16	0.2	0.19	0.449	0.509	0.504	0.481	0.597	1.87	1.01	0.951	1.31
NCI-H1755	0.378	0.346	0.29	0.275	0.203	0.491	0.393	0.411	0.57	0.449	0.39	0.38	0.391	0.314	1.1	0.981	1.01	1.46
NCI-H1792	0.251	0.296	0.212	0.223	0.149	0.681	0.387		0.539	0.697	0.754	0.672	0.745	0.942	1.26	0.83	0.696	0.927
NCI-H1793	0.345	0.202	0.32	0.275	0.196	0.238	0.162	0.161	0.175	0.381	0.374	0.472	0.419	0.48	0.675	0.632	0.902	0.916
